Results on eight molecules are retold here after publication PMC5465072 (Scientific Reports, 2017).

Entries after “also recorded” stand apart in the source; their conditions may differ. Square brackets hold non-standard residues; d marks the D form. Ends that are not written are not given here. Peptide text beside a SMILES is read from it. Phe(4-Cl) = N[C@@H](Cc1ccc(Cl)cc1)C(=O)O

Assay [1] addresses His6-PA488–735 / GST-CMG2_38–218 interaction (UniProt P13423+P58335). Kind of assay: biochemical. The arrangement: species or system Bacillus anthracis PA / human CMG2.
For assay [2], the target named is His6-PA596–735 / GST-CMG2_38–218 interaction (Homo sapiens, UniProt P58335). Description: biochemical. The assay is classed as biochemical, Bacillus anthracis PA / human CMG2.
The target in assay [3] is CMG2_38–218 (Homo sapiens, UniProt P58335). Description: biochemical. It is filed as binding.
The subject of assay [4] is J774 cells. It is filed as cell-based.

His6-PA488–735 / GST-CMG2_38–218 interaction, sequence (P13423 517-764 limits assumed): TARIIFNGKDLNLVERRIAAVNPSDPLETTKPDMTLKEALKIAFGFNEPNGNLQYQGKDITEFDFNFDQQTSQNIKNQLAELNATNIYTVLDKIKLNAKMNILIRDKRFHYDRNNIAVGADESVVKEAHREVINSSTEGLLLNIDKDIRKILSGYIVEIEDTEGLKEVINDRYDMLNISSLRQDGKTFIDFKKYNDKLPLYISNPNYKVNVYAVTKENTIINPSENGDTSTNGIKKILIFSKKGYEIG
His6-PA488–735 / GST-CMG2_38–218 interaction, sequence (P58335 38-218 limits assumed): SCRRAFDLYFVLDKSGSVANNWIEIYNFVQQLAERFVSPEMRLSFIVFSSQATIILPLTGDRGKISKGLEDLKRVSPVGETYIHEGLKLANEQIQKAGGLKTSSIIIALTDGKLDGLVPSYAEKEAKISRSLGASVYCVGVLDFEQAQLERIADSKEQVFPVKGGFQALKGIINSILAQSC
His6-PA596–735 / GST-CMG2_38–218 interaction, sequence (P58335 38-218 limits assumed): as above
CMG2_38–218, sequence (P58335 38-218): as the sequence (P58335 38-218 limits assumed) above

As for CLRFT [CLRFT], the IC50 (usually the point on the concentration scale where inhibition reaches its midpoint) in assay [1] amounted to 77.1 ± 9.5 µM; in assay [2], 71.3 ± 6.5 µM. Moreover, in assay [3], binding was put at a Kd of 30.2 ± 1.2 µM. As to H-CMNHAPA-OH [CMNHAPA], in assay [1], half-maximal inhibition (IC50) required 522 ± 47.8 µM and the “fold loss of activity in PA/CMG2 ELISA over the parent peptide CMNHFPA” value stood at 10 fold. Regarding `CC(C)C[C@H](NC(=O)[C@@H](N)CS)C(=O)N[C@@H](CCCNC(=N)N)C(=O)N[C@@H](Cc1ccc(Cl)cc1)C(=O)N[C@H](C(=O)O)[C@@H](C)O` [CLR(4-Cl-F)T] (H-CLR[Phe(4-Cl)]T-OH), the “concentration that protects J774 cells from lethal toxin” value in assay [4] is given as no less than 50 µM. Take CMNHFPA [CMNHFPA]: in assay [1], the IC50 was found to be 49.8 ± 2.7 µM. In addition, in assay [2], the “IC50 for disruption of the interaction of His6-PA596–735 and GST-CMG2_38–218” value was “not active; also recorded: lost all activity”. Regarding CLRPT [CLRPT], half-maximal inhibition in assay [1] (IC50) required 153 ± 2.9 µM. Consider (4-Cl-F)CRTL, for which the “protection of J774 cells from lethal toxin” value in assay [4] was “No protective effect; also recorded: no such protection”.

As to FCRTL, the “IC50 for disruption of the interaction of His6-PA488–735 and GST-CMG2_38–218” value in assay [1] is “inactive”. As to HPCNAMF [HPCNAMF], in assay [1], half-maximal inhibition (IC50) required 153 ± 9.3 µM and the “fold loss of activity in PA/CMG2 ELISA over the parent peptide CMNHFPA” value was determined as 3 fold.
